The results in this text go back to patent publication US12077503B2, “Substituted cyclic amides and their use as herbicides” (FMC CORPORATION, priority 2015, dated 2024).

Format in all cases: in vivo
One assay deals with rice (Oryra sativa). The assay can be described thus: Test B flooded paddy test. Conditions: Oryza sativa, 360 h, Flood, 250 g ai/ha; visually evaluated after 13 to 15 d; read-out: Plant response rating, Rice (0 to 100 scale where 0 is no effect and 100 is complete control). In a few lines:
(§1)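 2-leaf plants; pots flooded 3 cm over soil; cpd added to paddy water; depth held; greenhouse 13–15 d; visual rating vs controls, 0 = no effect, 100 = complete control.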

The subject of assay [1] is ducksalad (Heteranthera limosa). As to the kind of experiment: Test B flooded paddy test. Conditions: Heteranthera limosa, 360 h, Flood, 250 g ai/ha; visually evaluated after 13 to 15 d; read-out: Plant response rating, Ducksalad (0 to 100 scale where 0 is no effect and 100 is complete control). In short, it runs like this: as §1
Assay [2] deals with barnyardgrass (Echinochloa crus-galli). The assay can be described thus: Test B flooded paddy test. Particulars: Echinochloa crus-galli, 360 h, Flood, 250 g ai/ha; visually evaluated after 13 to 15 d; read-out: Plant response rating, Barnyardgrass (0 to 100 scale where 0 is no effect and 100 is complete control). In short, it runs like this: as §1
Assay [3] concerns sedge, umbrella (small-flower umbrella sedge, Cyperus difformis). The assay can be described thus: Test B flooded paddy test. Conditions: Cyperus difformis, 360 h, Flood, 250 g ai/ha; visually evaluated after 13 to 15 d; read-out: Plant response rating, Sedge, Umbrella (0 to 100 scale where 0 is no effect and 100 is complete control). In a few lines: as §1
Assay [4] relates to ryegrass, Italian (Italian ryegrass, Lolium multiflorum). The assay can be described thus: Test A preemergence. Particulars: Lolium multiflorum, pre-emergence, 240 h, 0 to 100 scale (0 no effect, 100 complete control), read-out: Plant response rating, Ryegrass, Italian. In short, it runs like this: (§2)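 Compounds were formulated in a non-phytotoxic solvent mixture with surfactant and applied as a preemergence directed soil spray after seeding, or sprayed postemergence over plants 2 to 10 cm tall at the one- to two-leaf stage. Evaluation after about 10 d compared treated with untreated controls, using a scale from 0 (no effect) to 100 (complete control).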

Assay [5] has as its system giant foxtail (Setaria faberii). The assay can be described thus: Test A preemergence. Conditions: Setaria faberi, pre-emergence, 240 h, 0 to 100 scale (0 no effect, 100 complete control), read-out: Plant response rating, Foxtail, Giant. In a few lines: as §2
Assay [6] relates to ragweed (common ragweed, Ambrosia elatior). As to the kind of experiment: Test A preemergence. Particulars: Ambrosia artemisiifolia, pre-emergence, 240 h, 0 to 100 scale (0 no effect, 100 complete control), read-out: Plant response rating, Ragweed. In a few lines:
as §2

Assay [7] concerns pigweed (Amaranthus retroflexus). As to the kind of experiment: Test A preemergence. Conditions: Amaranthus retroflexus, pre-emergence, 240 h, 0 to 100 scale (0 no effect, 100 complete control), read-out: Plant response rating, Pigweed.
The subject of a further assay is Kochia (Kochia scoparia). The assay can be described thus: Test A preemergence. Particulars: Bassia scoparia, pre-emergence, 240 h, 0 to 100 scale (0 no effect, 100 complete control), read-out: Plant response rating, Kochia. In short, it runs like this:
as §2

The subject of assay [8] is barnyardgrass (Echinochloa crus-galli). The assay can be described thus: Test A preemergence. Particulars: Echinochloa crus-galli, pre-emergence, 240 h, 0 to 100 scale (0 no effect, 100 complete control), read-out: Plant response rating, Barnyardgrass. In a few lines: as §2
Assay [9] relates to wheat (Triticum aestivum). The assay can be described thus: Test A postemergence. Conditions: Triticum aestivum, post-emergence, 240 h, Postemergence. In short, it runs like this:
as §2

The subject of assay [10] is giant foxtail (Setaria faberii). The assay can be described thus: Test A postemergence. Particulars: Setaria faberi, post-emergence, 240 h, Postemergence. In short, it runs like this: as §2
For assay [11], the system named is pigweed (Amaranthus retroflexus). The assay can be described thus: Test A postemergence. Conditions: Amaranthus retroflexus, post-emergence, 240 h, Postemergence. In short, it runs like this: as §2
For assay [12], the system named is Galium (catchweed bedstraw, Galium aparine). The assay can be described thus: Test A postemergence. Particulars: Galium, post-emergence, 240 h, Postemergence. In a few lines:
as §2

`CN1C[C@H](c2ccc(C(F)(F)F)cc2)[C@@H](C(=O)Nc2cccc(C#N)c2F)C1=O` [Compound 1381]: the pest or weed control at 250 g/ha in the assay with rice (Oryra sativa) is 0%; in assay [1], 100%; in assay [2] it was 65%; in [3], 0%. The pest or weed control at 500 g/ha in assay [4] (500 g ai/ha, preemergence) was 50%; in assay [5] (500 g ai/ha, preemergence) it was 100%; in assay [6] (500 g ai/ha, preemergence), 80%; in assay [7] (500 g ai/ha, preemergence) it was 100%; in the assay on Kochia (Kochia scoparia) (500 g ai/ha, preemergence) it was 80%; in assay [8] (500 g ai/ha, preemergence), 100%. The pest or weed control at 500 g/ha was found to be 90% in assay [10] (500 g ai/ha, visual injury, 0 to 100 scale (0 no effect, 100 complete control), approx. 10 d, read-out: Plant response rating, Foxtail, Giant); 70% in assay [11] (500 g ai/ha, visual injury, 0 to 100 scale (0 no effect, 100 complete control), approx. 10 d, read-out: Plant response rating, Pigweed); 60% in assay [12] (500 g ai/ha, visual injury, 0 to 100 scale (0 no effect, 100 complete control), approx. 10 d, read-out: Plant response rating, Galium). In addition, the pest or weed control at 125 g/ha was 30% in assay [4] (Preemergence, 125 g ai/ha); 100% in [5] (Preemergence, 125 g ai/ha); 70% in assay [6] (Preemergence, 125 g ai/ha); 90% in [7] (Preemergence, 125 g ai/ha); 80% with Kochia (Kochia scoparia) (Preemergence, 125 g ai/ha); 90% in assay [8] (Preemergence, 125 g ai/ha). Moreover, the pest or weed control at 125 g/ha was 90% in [10] (125 g ai/ha, visual rating about 10 d after treatment, read-out: Foxtail, Giant plant response rating (0 to 100 scale)); 70% in [11] (125 g ai/ha, visual rating about 10 d after treatment, read-out: Pigweed plant response rating (0 to 100 scale)); 50% in [12] (125 g ai/ha, visual rating about 10 d after treatment, read-out: Galium plant response rating (0 to 100 scale)). In addition, the plant injury at 125 g/ha in [9] (125 g ai/ha, visual rating about 10 d after treatment, read-out: Wheat plant response rating (0 to 100 scale)) turned out to be 30%. In addition, the plant injury at 500 g/ha in [9] (500 g ai/ha, visual injury, 0 to 100 scale (0 no effect, 100 complete control), approx. 10 d, read-out: Plant response rating, Wheat) stood at 50%.
